Reference: patent US20190127366A1 (LifeSci Pharmaceuticals, Inc., priority 2015, published 2019)

Biological target: T1, human complement factor D (Homo sapiens, UniProt P00746)
T1 construct: purchased R&D Systems 1824-SE
Experiment: In vitro enzyme inhibition (Z-Lys-SBzl/DTNB absorbance assay)
Assay type: biochemical
Conditions: Complement Factor D (R&D Systems), substrate Z-Lys-SBzl, A405 nm; read-out: CFD IC50
Method in brief: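 Factor D (6.25 ng/μL before addition) preincubated 5 min RT with compound (8 points from 50 μM, 6-fold, 0.5% DMSO final) in 50 mM Tris/HCl pH 7.5, 1 M NaCl, then Z-Lys-SBzl/DTNB added (200 μM each before addition). A405 read kinetically every 30 s for 60 min; IC50 from variable-slope fit, controls with and without enzyme.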

T1 sequence (P00746 26-253): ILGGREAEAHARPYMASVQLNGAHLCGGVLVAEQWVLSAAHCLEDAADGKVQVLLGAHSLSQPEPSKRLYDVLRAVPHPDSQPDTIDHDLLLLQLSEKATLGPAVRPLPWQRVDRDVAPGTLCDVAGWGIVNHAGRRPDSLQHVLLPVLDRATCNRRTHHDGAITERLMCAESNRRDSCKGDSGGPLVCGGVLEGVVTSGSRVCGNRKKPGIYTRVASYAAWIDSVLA

| SMILES | IC50 [nM] |
| --- | --- |
| NC(=O)c1nn(CC(=O)N2[C@@H]3CC[C@@H](C3)[C@H]2C(=O)NC(CCO)c2cccc(Cl)c2F)c2ccccc12 (stereo partly drawn) [Example 146, 1-(2-((1R,3S,4S)-3-((1-(3-chloro-2-fluorophenyl)-3-hydroxypropyl)carbamoyl)-2-azabicyclo[2.2.1]heptan-2-yl)-2-oxoethyl)-1H-indazole-3-carboxamide] | 1000 to 10000 |
| N#Cc1ccc(Cl)nc1NC(=O)[C@@H]1[C@H]2CC[C@H](C2)N1C(=O)Cn1nc(C(N)=O)c2ccccc21 [Example 101, 1-(2-((1R,3S,4S)-3-((6-chloro-3-cyanopyridin-2-yl)carbamoyl)-2-azabicyclo[2.2.1]heptan-2-yl)-2-oxoethyl)-1H-indazole-3-carboxamide] | 100 to 1000 |
| NC(=O)c1nn(CC(=O)N2[C@@H]3CC[C@@H](C3)[C@H]2C(=O)Nc2cccc(Cl)c2F)c2cnccc12 [Example 36, 1-(2-((1R,3S,4S)-3-((3-chloro-2-fluorophenyl)carbamoyl)-2-azabicyclo[2.2.1]heptan-2-yl)-2-oxoethyl)-1H-pyrazolo[3,4-c]pyridine-3-carboxamide] | 1000 to 10000 |
| CC(O)c1nn(CC(=O)N2[C@@H]3CC[C@@H](C3)[C@H]2C(=O)Nc2cccc(Cl)n2)c2ccccc12 (stereo partly drawn) [Example 85, (1R,3S,4S)-N-(6-chloropyridin-2-yl)-2-(2-(3-(1-hydroxyethyl)-1H-indazol-1-yl)acetyl)-2-azabicyclo[2.2.1]heptane-3-carboxamide] | > 10000 |
| NC(=O)c1nn(CC(=O)N2[C@@H]3CC[C@@H](C3)[C@H]2C(=O)NCc2cccc(Cl)c2Cl)c2ccccc12 [Example 70, 1-(2-((1R,3S,4S)-3-((2,3-dichlorobenzyl)carbamoyl)-2-azabicyclo[2.2.1]heptan-2-yl)-2-oxoethyl)-1H-indazole-3-carboxamide] | 100 to 1000 |
| NC(=O)c1nn(CC(=O)N2[C@@H]3CC[C@@H](C3)[C@H]2C(=O)Nc2ccc(Cl)c(Cl)n2)c2ccccc12 [Example 76, 1-(2-((1R,3S,4S)-3-((5,6-dichloropyridin-2-yl)carbamoyl)-2-azabicyclo[2.2.1]heptan-2-yl)-2-oxoethyl)-1H-indazole-3-carboxamide] | 100 to 1000 |
| NC(=O)c1nn(CC(=O)N2CC[C@H]2C(=O)NCc2cccc(Cl)c2F)cc1Br [Example 187, (S)-4-bromo-1-(2-(2-((3-chloro-2-fluorobenzyl)carbamoyl)azetidin-1-yl)-2-oxoethyl)-1H-pyrazole-3-carboxamide] | 1000 to 10000 |
| COc1ccc2c(c1)c(C(N)=O)nn2CC(=O)N1[C@@H]2CC[C@@H](C2)[C@H]1C(=O)Nc1cccc(Cl)n1 [Example 74, 1-(2-((1R,3S,4S)-3-((6-chloropyridin-2-yl)carbamoyl)-2-azabicyclo[2.2.1]heptan-2-yl)-2-oxoethyl)-5-methoxy-1H-indazole-3-carboxamide] | 1000 to 10000 |
| COC(=O)c1ccc(Cl)c(F)c1CNC(=O)[C@@H]1[C@H]2CC[C@H](C2)N1C(=O)Cn1nc(C(N)=O)c2ccccc21 [Example 116, methyl 2-(((1R,3S,4S)-2-(2-(3-carbamoyl-1H-indazol-1-yl)acetyl)-2-azabicyclo[2.2.1]heptane-3-carboxamido)methyl)-4-chloro-3-fluorobenzoate] | 1000 to 10000 |
| Cc1cccc(NC(=O)[C@@H]2[C@H]3CC[C@H](C3)N2C(=O)Cn2nc(C(N)=O)c3ccccc32)n1 [Example 6, 1-(2-((1R,3S,4S)-3-((6-methylpyridin-2-yl)carbamoyl)-2-azabicyclo[2.2.1]heptan-2-yl)-2-oxoethyl)-1H-indazole-3-carboxamide] | 1000 to 10000 |
| N#Cc1ccc2c(c1)c(C(N)=O)nn2CC(=O)N1[C@@H]2CC[C@@H](C2)[C@H]1C(=O)Nc1cccc(Cl)n1 [Example 81, 1-(2-((1R,3S,4S)-3-((6-chloropyridin-2-yl)carbamoyl)-2-azabicyclo[2.2.1]heptan-2-yl)-2-oxoethyl)-5-cyano-1H-indazole-3-carboxamide] | 100 to 1000 |
| NC(=O)c1nn(CC(=O)N2CCCC[C@H]2C(=O)Nc2cccc(Br)n2)c2ccccc12 [Example 20, (S)-1-(2-(2-((6-bromopyridin-2-yl)carbamoyl)piperidin-1-yl)-2-oxoethyl)-1H-indazole-3-carboxamide] | 100 to 1000 |
| NC(=O)c1nn(CC(=O)N2[C@H](C(=O)Nc3ccnc(Cl)c3)C[C@@H]3CCC[C@@H]32)c2ccccc12 [Example 163, 1-(2-((2S,3aS,6aS)-2-((2-chloropyridin-4-yl)carbamoyl)hexahydrocyclopenta[b]pyrrol-1(2H)-yl)-2-oxoethyl)-1H-indazole-3-carboxamide] | > 10000 |
| NC(=O)c1nn(CC(=O)N2[C@@H]3CC[C@@H](C3)[C@H]2C(=O)NCc2ccc3[nH]cc(Cl)c3c2F)c2ccccc12 [Example 47, 1-(2-((1R,3S,4S)-3-(((3-chloro-4-fluoro-1H-indol-5-yl)methyl)carbamoyl)-2-azabicyclo[2.2.1]heptan-2-yl)-2-oxoethyl)-1H-indazole-3-carboxamide] | > 10000 |
| NC(=O)c1nn(CC(=O)N2[C@@H]3CC[C@@H](C3)[C@H]2C(=O)NC(C(=O)O)c2cccc(Cl)c2F)c2ccccc12 (stereo partly drawn) [Example 137, 2-((1R,3S,4S)-2-(2-(3-carbamoyl-1H-indazol-1-yl)acetyl)-2-azabicyclo[2.2.1]heptane-3-carboxamido)-2-(3-chloro-2-fluorophenyl)acetic acid] | 1000 to 10000 |
| NC(=O)c1nn(CC(=O)N2CC3CC2(C(=O)Nc2cccc(Cl)c2F)C3)c2ccccc12 [Example 150, 2-(2-(3-carbamoyl-1H-indazol-1-yl)acetyl)-N-(3-chloro-2-fluorophenyl)-2-azabicyclo[2.1.1]hexane-1-carboxamide] | > 10000 |
| CC(=O)c1nn(CC(=O)N2[C@H](C(=O)Nc3cccc(Cl)n3)C[C@@H]3CCC[C@@H]32)c2ccc(F)cc12 [Example 183, (2S,3aS,6aS)-1-(2-(3-acetyl-5-fluoro-1H-indazol-1-yl)acetyl)-N-(6-chloropyridin-2-yl)octahydrocyclopenta[b]pyrrole-2-carboxamide] | 1000 to 10000 |
| NC(=O)Cc1ccc2c(c1)c(C(N)=O)nn2CC(=O)N1[C@@H]2CC[C@@H](C2)[C@H]1C(=O)NCc1cccc(Cl)c1F [Example 133, 5-(2-amino-2-oxoethyl)-1-(2-((1R,3S,4S)-3-((3-chloro-2-fluorobenzyl)carbamoyl)-2-azabicyclo[2.2.1]heptan-2-yl)-2-oxoethyl)-1H-indazole-3-carboxamide] | 1000 to 10000 |
| CC(=O)c1nn(CC(=O)N2[C@H](C(=O)Nc3cccc(Cl)n3)C[C@@H]3CCC[C@@H]32)c2ccccc12 [Example 180, (2S,3aS,6aS)-1-(2-(3-acetyl-1H-indazol-1-yl)acetyl)-N-(6-chloropyridin-2-yl)octahydrocyclopenta[b]pyrrole-2-carboxamide] | 100 to 1000 |
| NC(=O)c1nn(CC(=O)N2C3CCC(C3)[C@H]2C(=O)Nc2cccc(C(F)(F)F)n2)c2ccc(C3CC3)cc12 (stereo partly drawn) [Example 14, 5-cyclopropyl-1-(2-oxo-2-((3S)-3-((6-(trifluoromethyl)pyridin-2-yl)carbamoyl)-2-azabicyclo[2.2.1]heptan-2-yl)ethyl)-1H-indazole-3-carboxamide] | 1000 to 10000 |
| NC(=O)c1nn(CC(=O)N2[C@@H]3CC[C@@H](C3)[C@H]2C(=O)NCc2cccc(Cl)c2F)c2cc(CC(=O)O)ccc12 [Example 127, 2-(3-carbamoyl-1-(2-((1R,3S,4S)-3-((3-chloro-2-fluorobenzyl)carbamoyl)-2-azabicyclo[2.2.1]heptan-2-yl)-2-oxoethyl)-1H-indazol-6-yl)acetic acid] | 1000 to 10000 |
| NC(=O)c1nn(CC(=O)N2[C@@H]3CC[C@@H](C3)[C@H]2C(=O)Nc2cnc3ccccc3n2)c2ccccc12 [Example 45, 1-(2-oxo-2-((1R,3S,4S)-3-(quinoxalin-2-ylcarbamoyl)-2-azabicyclo[2.2.1]heptan-2-yl)ethyl)-1H-indazole-3-carboxamide] | 1000 to 10000 |
| NCC(NC(=O)[C@@H]1[C@H]2CC[C@H](C2)N1C(=O)Cn1nc(C(N)=O)c2ccccc21)c1cccc(Cl)c1F (stereo partly drawn) [Example 140, 1-(2-((1R,3S,4S)-3-((2-amino-1-(3-chloro-2-fluorophenyl)ethyl)carbamoyl)-2-azabicyclo[2.2.1]heptan-2-yl)-2-oxoethyl)-1H-indazole-3-carboxamide] | > 10000 |
| NC(=O)c1nn(CC(=O)N2[C@@H]3CC[C@@H](C3)[C@H]2C(=O)NCc2cccc(Cl)c2F)c2ccncc12 [Example 98, 1-(2-((1R,3S)-3-((3-chloro-2-fluorobenzyl)carbamoyl)-2-azabicyclo[2.2.1]heptan-2-yl)-2-oxoethyl)-1H-pyrazolo[4,3-c]pyridine-3-carboxamide] | 1000 to 10000 |
| NC(=O)c1ccc2c(c1)c(C(N)=O)nn2CC(=O)N1[C@@H]2CC[C@@H](C2)[C@H]1C(=O)Nc1cccc(Cl)n1 [Example 121, 1-(2-((1R,3S,4S)-3-((6-chloropyridin-2-yl)carbamoyl)-2-azabicyclo[2.2.1]heptan-2-yl)-2-oxoethyl)-1H-indazole-3,5-dicarboxamide] | 100 to 1000 |
| NC(=O)c1nn(CC(=O)N2[C@H](C(=O)NCc3cccc(Cl)c3F)C[C@@H]3CCC[C@@H]32)c2ccc(C3CC3)cc12 [Example 199, 1-(2-((2S,3aS,6aS)-2-((3-chloro-2-fluorobenzyl)carbamoyl)hexahydrocyclopenta[b]pyrrol-1(2H)-yl)-2-oxoethyl)-5-cyclopropyl-1H-indazole-3-carboxamide] | 100 to 1000 |
| CN1CCN(C(=O)Cn2nc(C(N)=O)c3ccccc32)[C@H](C(=O)Nc2cccc(Cl)n2)C1 [Example 28, (S)-1-(2-(2-((6-chloropyridin-2-yl)carbamoyl)-4-methylpiperazin-1-yl)-2-oxoethyl)-1H-indazole-3-carboxamide] | 1000 to 10000 |
